Source: US20210315476A1, “Depth-independent method for in-vivo drug release monitoring and quantification based on magnetic particle imaging” (The Board of Trustees of the Leland Stanford Junior …, priority 2018, published 2021)

System: MDA-MB-231 tumors
Assay: TUNEL assay for tumor apoptosis
Type: in vivo, nude mice
Details: tumors harvested 48 h after intratumoral injection, N=3 mice per condition
Experimental: Furthermore, we evaluated the therapeutic efficacy of Fe3O4@PLGA-DOX to the tumor. Tumor tissues of the orthotopic breast cancer mice were harvested after injection of Fe3O4@PLGA-DOX for 48 h and then sectioned for TUNEL apoptosis assay. […] Meanwhile, the fluorescence signals can also be observed in the tissue section.
MDA-MB-231 tumors on nude mice were harvested and encapsulated in Tissue-Tek® O.C.T. and then frozen. Tumor tissues embedded in were sectioned by cryostat with a thickness of 2 μm for each slice. tissue slices were treated with Click-iT™ Plus TUNEL Assay (Alexa Fluor™ 488 dye) kit for apoptosis detection. Fluorescence images of tumor tissues were captured by fluorescent microscopy. Alexa Fluor™ 488 dye was excited by 488 nm laser and the emission collecting window was 500-540 nm. The signal of DOX were excited by 488 nm laser and emission was collected at 580-630 nm.

## COc1cccc2c1C(=O)c1c(O)c3c(c(O)c1C2=O)C[C@@](O)(C(=O)CO)C[C@@H]3O[C@H]1C[C@H](N)[C@H](O)[C@H](C)O1 [DOX, doxorubicin]
  apoptosis in tumor section (TUNEL): exhibited apoptosis
